Results as given in patent publication US10072055B2, “Anti-inflammatory pharmaceutical products” (Resother Pharma APS, priority 2011, dated 2018).
“Also recorded” adds a separate entry of the source. Ends that are not written are not given here.

What was measured:
[1] = tested on: PMN interaction to an activated HUVEC monolayer; test: Flow chamber assay: PMN interaction with activated HUVEC monolayer (capture, rolling, adhesion); type: cell-based, human; conditions: for inhibition of PMN/neutrophil-endothelium interactions in flow chamber: concentration not given
From the text: FIGS. 2A-2C are a series of charts reporting data from flow chamber analysis to determine the inhibitory capability of five polypeptides of the present disclosure (Pep57 (SEQ ID NO:12); Pep59 (SEQ ID NO:13), Pep60 (SEQ ID NO:15), Pep83 (SEQ ID NO:16) and Pep84 (SEQ ID NO:14)) and Ac-ANAX1(2-26)-OH to reduce PMN interaction to an activated HUVEC monolayer.
FIGS. 4A-4C are a series of bar charts reporting percent inhibition provided by three polypeptides (UGP022 (SEQ ID NO:5); UGP025 (SEQ ID NO:7) and UGP026 (SEQ ID NO:8)) of the present disclosure, at different concentrations, on three different parameters (capture—FIG. 4A; rolling—FIG. 4B; and adhesion—FIG. 4C).
FIGS. 2A-2C are a series of charts reporting data from flow chamber analysis to determine the inhibitory capability of five polypeptides (Pep57 (SEQ ID NO: 12); Pep59 (SEQ ID NO: 13), Pep60 (SEQ ID NO: 15), Pep83 (SEQ ID NO: 16) and Pep84 (SEQ ID NO: 14)) of the present disclosure and Ac-ANAX1(2-26)-OH to reduce PMN interaction to an activated HUVEC monolayer. PMNs (5×10^6) were incubated with 10 μM of the various peptides for 10 min at 37° C. The PMNs were then flowed for 8 min at 1 dyne/cm^2, prior to quantifying the degree of PMN interaction with the HUVECs, both as PMN capture (FIG. 2A), adhesion (FIG. 2B) and rolling (FIG. 2C). […] Data are mean±SEM of 3 independent experiments (with distinct PMN and HUVEC preparations); *=P<0.05 vs. CT group, data analyzed using one way ANOVA.
FIGS. 4A-4C make a direct comparison of the activities of UGP022 (SEQ ID NO:5), UGP025 (SEQ ID NO: 7) and UGP026 (SEQ ID NO: 8) in the flow chamber assay, presenting the degree of inhibition on the three parameters under analysis (capture (FIG. 4A); rolling (FIG. 4B) and adhesion (FIG. 4C)).

[2] = tested on: phagocytosis of apoptotic cells; test: Phagocytosis of apoptotic PMN (efferocytosis); type: cell-based
From the text: FIG. 5 is a series of bar charts reporting the ability of three polypeptides (UGP022 (SEQ ID NO:5); UGP025 (SEQ ID NO:7) and UGP026 (SEQ ID NO:8))_of the present disclosure, at different concentrations, to mimic an Annexin A1 property of inducing phagocytosis of apoptotic cells.
In recent years important pro-resolving properties have been ascribed to Annexin A1, namely the induction of phagocytosis of apoptotic cells by macrophages and cells alike. This effect is also reliant on FPR2 and shared with other important pro-resolving mediators including the lipoxins and the resolvins.
FIG. 5 is a series of bar charts reporting the ability of three polypeptides (UGP022 (SEQ ID NO:5); UGP025 (SEQ ID NO:7) and UGP026 (SEQ ID NO:8)) of the present disclosure, at different concentrations, to mimic an Annexin A1 property of inducing phagocytosis of apoptotic cells.

FPR2 = target: T1, FPR2 (Homo sapiens, UniProt P25090); test: Binding affinity to FPR2
T1 sequence (P25090 1-351): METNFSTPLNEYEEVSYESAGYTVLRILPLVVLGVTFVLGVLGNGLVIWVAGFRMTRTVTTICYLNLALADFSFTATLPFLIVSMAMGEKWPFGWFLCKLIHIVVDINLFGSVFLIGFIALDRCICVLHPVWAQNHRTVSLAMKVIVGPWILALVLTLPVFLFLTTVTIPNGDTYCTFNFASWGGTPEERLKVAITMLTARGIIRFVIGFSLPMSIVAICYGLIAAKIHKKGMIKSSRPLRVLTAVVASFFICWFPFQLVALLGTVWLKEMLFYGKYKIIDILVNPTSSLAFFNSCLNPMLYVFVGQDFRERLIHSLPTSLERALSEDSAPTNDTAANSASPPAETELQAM

[3] = Anti-inflammatory properties, test not specified
reperfusion injury = test: Myocardial ischemia/reperfusion injury, infarct size (LADCA occlusion); type: in vivo, C57/B16 mice; conditions: i.v. bolus at beginning of reperfusion; 25 min ischemia, 120 min reperfusion
Method: (§1) Infarct size in C57/B16 mice (˜30 g body weight) following 25 min ischemia (occlusion of the left anterior descending coronary artery; [LADCA]) and 120 min reperfusion. Vehicle or UGP022 (SEQ ID NO:5) were administered i.v. (over 5 sec bolus) at beginning of reperfusion. Area at Risk was measured following re-occlusion and injection of Evans blue dye. Infarct size was determined following NBT staining of the Area at Risk. Results are mean±SEM of 4 mice per group; **P<0.01
as §1, with “(LADCA occlusion)” for “(occlusion of the left anterior descending coronary artery; [LADCA])”, “Vehicle, UGP025” for “Vehicle or UGP022”, “NO:7) (5 μg) or UGP026 (SEQ ID NO:8) (5 μg)” for “NO:5)”

Substance | activity in flow chamber assay at 100 fM ([1]; 100 fM) | inhibition of PMN/neutrophil-endothelium interactions in flow chamber [1] | activity in flow chamber assay at the higher concentrations tested ([1]; higher concentrations) | induction of phagocytosis of apoptotic PMN [2] | affinity to FPR2 over FPR1 (FPR2) | binding affinity to FPR2 (FPR2) | anti-inflammatory properties in vitro and in vivo [3] | tissue protection / reduction of reperfusion injury (infarct size) (reperfusion injury) | lowest concentration with significant anti-inflammatory effect on human PMN ([1]; human PMN) [pM] | in vitro results, amidated vs free acid precursor [3]
AMVSEFLKQAWFIENEEQEYVQTLKSSKGGPGSAVSPYPTFNPSSDV-NH2 [UGP025, Leu25-ANXA1(2-48)-NH2] | slightly more active at the 100 fM concentration when compared to the UGP022 peptide | able to reduce the number of human PMNs interacting with an activated endothelium, acting specifically through the FPR2 receptor | less active at the higher concentrations tested | promoted phagocytosis of the apoptotic PMN | retain a higher affinity to FPR2 over FPR1 | seems to have a higher affinity to FPR2 than does UGP026 | seeming more potent | affording cardioprotection; also recorded: reduce the risk of reperfusion injury relative to a vehicle-only control | – | –
AMVSEFLKQAWFIENEEQEYVQTLKSSKGGPGSAVSPYPTFNPSSDVAA-NH2 [UGP026, Leu25-ANXA1(2-50)-NH2] | – | able to reduce the number of human PMNs interacting with an activated endothelium, acting specifically through the FPR2 receptor | – | promoted phagocytosis of the apoptotic PMN | retain a higher affinity to FPR2 over FPR1 | – | possess anti-inflammatory properties both in vitro and in vivo | affording cardioprotection; also recorded: reduce the risk of reperfusion injury relative to a vehicle-only control | – | –
AMVSEFLKQAWFIENEEQEYVQTVKSSKGGPGSAVSPYPTFNPSSDVAA-NH2 [UGP022, ANXA1(2-50)-NH2] | – | more potent than either the UGP021 peptide; also recorded: able to reduce the number of human PMNs interacting with an activated endothelium, acting specifically through the FPR2 receptor | – | displaying the higher ability to induce this process | – | binding affinity to the FPR2 in the nanomolar range; also recorded: showing the highest affinity | – | potent tissue protective properties; also recorded: reduce the risk of reperfusion injury relative to a vehicle-only control | 1 | shows better in vitro results than with a free acid precursor
